Experimental data published in patent US9255272B2, “Use of inhibitors of leukotriene B4 receptor BLT2 for treating asthma” (Korea University Research & Business Foundation, priority 2007, dated 2016).

Tests used:
BLT2 mRNA = BLT2 mRNA level in lung of OVA-challenged mice (semiquantitative RT-PCR, real-time PCR); type: in vivo, mouse
Method: Female BALB/c mice and C57BL/6 mice (7 weeks old; 18-20 g) were obtained from Orientbion Inc. (Seoungnam, Korea). Sensitization and challenge were carried out as described previously with some modification (28). Briefly, female C57BL/6 mice (7 weeks old; 18-20 g) were immunized by intraperitoneal (i.p.) injection of 200 μg ovalbumin (OVA) emulsified in 2.5 mg of adjuvant aluminum hydroperoxide gel (alum) (Pierce, Rockford, Ill.). A second i.p. injection of 20 μg OVA adsorbed onto alum (2.5 mg) was administered 10 days later. After an additional 10 days, mice were exposed to an aerosol of 1% OVA in saline for 30 min daily on 3 consecutive days. On day 25, mice were finally challenged by provocation with 10% OVA aerosol. […]
(§1) Total RNA was extracted from lung samples using Easy-blue RNA extraction reagent (Intron, Korea). […] For the semiquantitative analysis of transcripts, the optimal PCR conditions were first determined by linear amplification of glyceraldehyde-3-phosphate dehydrogenase (GAPDH). […]
as §1

[1] = test system: acute lung injury induced by endotoxin; conditions: pigs, cited from earlier work
Rac = test: Endogenous Rac expression in lung tissue (Western blot); type: in vivo, mouse; conditions: oligonucleotides injected into tail veins, mice sacrificed after 12 hr
Source text: FIGS. 10a and 10b show activation of Rac in the lung tissue by OVA provocation and inhibition of endogenous Rac expression by antisense Rac oligonucleotide treatment. Lung samples were homogenized with micropestle and washed with PBS twice. FIG. 10a depicts Western blot analysis of Rac expression in mouse model of asthma. For membrane protein preparation, cells were suspended in Buffer A and cells were ruptured by passing through 21-G syringe. After ultracentrifugation, protein samples in pelleted membrane fraction were dissolved with buffer A containing 1% Triton X-100. FIG. 10b depicts Western blot analysis of Rac expression in mouse model of asthma administered with asRac. For whole cell lysate preparation, cells from the lung tissues of buffer, control Rac oligonucleotide or antisense Rac oligonucleotide injected mice were suspended with lysis buffer and incubated for 20 min. After centrifugation of the samples, protein quantification was carried out using Bradford reagent and Western blot analysis was performed.
Oligonucleotides, from Genotech Co. (Korea), were synthesized with a phosphorothioate backbone to improve the resistance to endonuclease. The antisense oligonucleotide consisted of 17 nucleotides analogues to the 5′ end of the murine Rac mRNA sequence, which spans the translation initiation site. […]

CCc1cc(C(C)=O)c(O)cc1OCCCCCC(C)(C)c1nnn[nH]1 [LY255283, 1-[5-ethyl-2-hydroxy-4-[[6-methyl-6-(1H-tetrazol-5-yl)heptyl]oxy]phenyl]-ethanone, reference compound]
level of BLT2 mRNA in the lung (BLT2 mRNA; BALB/c mice, LY255283 2.5 mg/kg i.v. 1 hr before 1% OVA challenge, 48 h after challenge): significantly reduced | activation of neutrophils ([1]; endotoxin): limits activation of neutrophils | acute lung injury induced by endotoxin [1]: prevents acute lung injury

antisense Rac: phosphorothioate 17-mer to the 5′ end of murine Rac mRNA, 5′-CACTTGATGGCCTGCAT-3′ (SEQ ID NO: 22) (listed as DNA, chemistry not fully specified)
endogenous expression of Rac in the lung tissues (Rac): inhibited

antisense BLT2: Antisense BLT2 oligonucleotide 5′-GCTCAGTAGTGTCTCATTCC-3′ (SEQ ID NO: 15) (listed as DNA, chemistry not fully specified)
BLT2 expression in the lung (mRNA) (BLT2 mRNA; C57BL/6 mice, 1.6 mg/kg i.v. 24 hr and 1 hr before 10% OVA challenge, 48 hr after challenge): reduced
